Source: US20210113602A1, “USE OF 6-THIO-2'-DEOXYGUANOSINE (6-THIO-dG) TO TREAT MELANOMA” (The Board of Regents of the University of Texas System, priority 2018, published 2021)

Test system: NRAS mutant melanoma cells
Assay: DNA damage, γH2AX staining
Type: cell-based, human
Conditions: 1 μM for 7 days
Protocol: FIGS. 2a-h. […] (FIGS. 2a-c) NRASmut melanoma cells (FIG. 2a), BRAF-V600E/NRAS mutant cells derived from melanoma patients resistant to BRAF/MEK inhibitors (FIG. 2b), or non-transformed melanocytes and fibroblasts (FIG. 2c) were treated with 6-thio-dG for 7 days. Cell viability was measured by Alamar Blue assay and calculated relative to DMSO-treated cells. (FIG. 2d) NRASmut melanoma cells and non-transformed human fibroblasts were treated with 1 or 5 μM 6-thio-dG for 7 or 14 days. Cell death was assessed by PSVUe staining. Percent of apoptotic cells is shown. (FIG. 2e) Cells were treated with DMSO or 1 μM 6-thio-dG for 14 days and telomere length was assessed by Southern blotting of TRF. Mean TRF length expressed as kilobase pairs is indicated at the bottom. (FIGS. 2f-g) Cells were treated with 1 μM 6-thio-dG for 7 days. (FIG. 2f) ROS production was measured by H2DCFDA fluorescence and normalized to MSO treated cells. (FIG. 2g) DNA damage was assessed by γH2AX staining. Data represent average from three independent experiments±SEM. *p<0.05; **p<0.01; ***p<0.005 in unpaired Student's t-test. […] Tumor volume was measured and average tumor volume (n=4)±SEM was plotted vs. time.
DNA damage and telomere dysfunction assay (TIF). […] Mean fluorescence staining was quantified by flow cytometry. […]

**Q.** Which γH2AX levels does the source give for `Nc1nc2c(ncn2[C@H]2C[C@H](O)[C@@H](CO)O2)c(=S)[nH]1` [6-thio-dG, 6-thio-2′-deoxy-guanosine] here?
**A.** Its γH2AX levels is “increased levels”.
